Measured values published in PubChem BioAssay AID1963853 (Molecular Pharmacology Branch, DTP, NCI, 2024).

Tested on: 266295-075-R-J1-PDC spheroid viability
Experiment: Anticancer human tumor 266295-075-R-J1-PDC patient-derived head and neck squamous carcinoma cell line growth inhibition [POLQ]
Conditions: spheroids with HUVEC and MSC; for IC50: curve of first compound; for viability, T/C: stronger effect = lower value
Outline: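 Complex spheroid viability model combining PDC tumour cells with endothelial (HUVEC) and MSC stromal cells. Novobiocin, ART-558 or RP6685 were tested singly and in combination with standard and investigational anticancer drugs. Each was titrated in half-log steps from near clinical Cmax, or from 10 microM where Cmax was unknown.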

[1] = second compound 0.0316 µM, first compound 0.0316 µM
[2] = second compound 0.0316 µM, first compound 0.1 µM
[3] = second compound 0.0316 µM, first compound 0.316 µM
[4] = second compound 0.0316 µM, first compound 1 µM
[5] = second compound 0.1 µM, first compound 0.0316 µM
[6] = second compound 0.1 µM, first compound 0.1 µM
[7] = second compound 0.1 µM, first compound 0.316 µM
[8] = second compound 0.1 µM, first compound 1 µM
[9] = second compound 0.316 µM, first compound 0.0316 µM
[10] = second compound 0.316 µM, first compound 0.1 µM
[11] = second compound 0.316 µM, first compound 0.316 µM
[12] = second compound 0.316 µM, first compound 1 µM
[13] = second compound 1 µM, first compound 0.0316 µM
[14] = second compound 1 µM, first compound 0.1 µM
[15] = second compound 1 µM, first compound 0.316 µM
[16] = second compound 1 µM, first compound 1 µM
[17] = second compound 3.16 µM, first compound 0.0316 µM
[18] = second compound 3.16 µM, first compound 0.1 µM
[19] = second compound 3.16 µM, first compound 0.316 µM
[20] = second compound 3.16 µM, first compound 1 µM
[21] = second compound 10 µM, first compound 0.0316 µM
[22] = second compound 10 µM, first compound 0.1 µM
[23] = second compound 10 µM, first compound 0.316 µM
[24] = second compound 10 µM, first compound 1 µM
[25] = second compound 0.0316 µM, first compound 3.16 µM
[26] = second compound 0.0316 µM, first compound 10 µM
[27] = second compound 0.1 µM, first compound 3.16 µM
[28] = second compound 0.1 µM, first compound 10 µM
[29] = second compound 0.316 µM, first compound 3.16 µM
[30] = second compound 0.316 µM, first compound 10 µM
[31] = second compound 1 µM, first compound 3.16 µM
[32] = second compound 1 µM, first compound 10 µM
[33] = second compound 3.16 µM, first compound 3.16 µM
[34] = second compound 3.16 µM, first compound 10 µM
[35] = second compound 10 µM, first compound 3.16 µM
[36] = second compound 10 µM, first compound 10 µM
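Also: spheroids exposed to compounds for seven days before readout.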

C=CCn1c(=O)c2cnc(Nc3ccc(N4CCN(C)CC4)cc3)nc2n1-c1cccc(C(C)(C)O)n1 + Cc1cccc(N(C)C(=O)C2C(O)CCN2c2nc(C)cc(C(F)(F)F)c2C#N)c1
IC50 (second compound 0.0316 µM): > 1000 nM
IC50 (second compound 0.1 µM): > 1000 nM
IC50 (second compound 0.316 µM): > 1000 nM
IC50 (second compound 1 µM): > 1000 nM
IC50 (second compound 3.16 µM): > 1000 nM
IC50 (second compound 10 µM): > 1000 nM
viability, T/C (second compound 0.0316 µM, first compound 0.00316 µM): 97.4%
viability, T/C (second compound 0.0316 µM, first compound 0.01 µM): 97.7%
viability, T/C [1]: 112%
viability, T/C [2]: 101%
viability, T/C [3]: 80%
viability, T/C [4]: 62.5%
viability, T/C (second compound 0.1 µM, first compound 0.00316 µM): 101%
viability, T/C (second compound 0.1 µM, first compound 0.01 µM): 115%
viability, T/C [5]: 111%
viability, T/C [6]: 127%
viability, T/C [7]: 79.4%
viability, T/C [8]: 63%
viability, T/C (second compound 0.316 µM, first compound 0.00316 µM): 119%
viability, T/C (second compound 0.316 µM, first compound 0.01 µM): 116%
viability, T/C [9]: 99.7%
viability, T/C [10]: 131%
viability, T/C [11]: 81.7%
viability, T/C [12]: 64.7%
viability, T/C (second compound 1 µM, first compound 0.00316 µM): 114%
viability, T/C (second compound 1 µM, first compound 0.01 µM): 104%
viability, T/C [13]: 119%
viability, T/C [14]: 78.4%
viability, T/C [15]: 77.4%
viability, T/C [16]: 63.6%
viability, T/C (second compound 3.16 µM, first compound 0.00316 µM): 118%
viability, T/C (second compound 3.16 µM, first compound 0.01 µM): 93.6%
viability, T/C [17]: 91.6%
viability, T/C [18]: 116%
viability, T/C [19]: 68.8%
viability, T/C [20]: 71.5%
viability, T/C (second compound 10 µM, first compound 0.00316 µM): 137%
viability, T/C (second compound 10 µM, first compound 0.01 µM): 117%
viability, T/C [21]: 102%
viability, T/C [22]: 128%
viability, T/C [23]: 87.7%
viability, T/C [24]: 81.8%

CNCc1ccc(-c2[nH]c3cc(F)cc4c3c2CCNC4=O)cc1 + Cc1cccc(N(C)C(=O)C2C(O)CCN2c2nc(C)cc(C(F)(F)F)c2C#N)c1
IC50 (second compound 0.0316 µM): > 10000 nM
IC50 (second compound 0.1 µM): > 10000 nM
IC50 (second compound 0.316 µM): > 10000 nM
IC50 (second compound 1 µM): > 10000 nM
IC50 (second compound 3.16 µM): > 10000 nM
IC50 (second compound 10 µM): > 10000 nM
viability, T/C [1]: 87.1%
viability, T/C [2]: 117%
viability, T/C [3]: 87.5%
viability, T/C [4]: 105%
viability, T/C [25]: 107%
viability, T/C [26]: 102%
viability, T/C [5]: 95.4%
viability, T/C [6]: 99.8%
viability, T/C [7]: 88.2%
viability, T/C [8]: 84.2%
viability, T/C [27]: 126%
viability, T/C [28]: 128%
viability, T/C [9]: 104%
viability, T/C [10]: 111%
viability, T/C [11]: 104%
viability, T/C [12]: 99.1%
viability, T/C [29]: 98.3%
viability, T/C [30]: 112%
viability, T/C [13]: 102%
viability, T/C [14]: 102%
viability, T/C [15]: 99.9%
viability, T/C [16]: 93.6%
viability, T/C [31]: 110%
viability, T/C [32]: 123%
viability, T/C [17]: 105%
viability, T/C [18]: 88.7%
viability, T/C [19]: 101%
viability, T/C [20]: 102%
viability, T/C [33]: 112%
viability, T/C [34]: 115%
viability, T/C [21]: 90.1%
viability, T/C [22]: 115%
viability, T/C [23]: 113%
viability, T/C [24]: 126%
viability, T/C [35]: 107%
viability, T/C [36]: 106%

COc1cccc2c1C(=O)c1c(O)c3c(c(O)c1C2=O)CC(O)(C(=O)CO)CC3OC1CC(N)C(O)C(C)O1 (stereo unspecified) + Cc1cccc(N(C)C(=O)C2C(O)CCN2c2nc(C)cc(C(F)(F)F)c2C#N)c1
IC50 (second compound 0.0316 µM): 1580 nM
IC50 (second compound 0.1 µM): 1600 nM
IC50 (second compound 0.316 µM): 1350 nM
IC50 (second compound 1 µM): 1350 nM
IC50 (second compound 3.16 µM): 1120 nM
IC50 (second compound 10 µM): 838 nM
viability, T/C [1]: 69.3%
viability, T/C [2]: 74.4%
viability, T/C [3]: 65.8%
viability, T/C [4]: 59.6%
viability, T/C [25]: 36.1%
viability, T/C [26]: 1.6%
viability, T/C [5]: 79.5%
viability, T/C [6]: 81.9%
viability, T/C [7]: 61.6%
viability, T/C [8]: 60.2%
viability, T/C [27]: 40%
viability, T/C [28]: 1.95%
viability, T/C [9]: 84.5%
viability, T/C [10]: 76%
viability, T/C [11]: 59.8%
viability, T/C [12]: 60.3%
viability, T/C [29]: 36.1%
viability, T/C [30]: 2.38%
viability, T/C [13]: 85.1%
viability, T/C [14]: 90.8%
viability, T/C [15]: 79.4%
viability, T/C [16]: 55.7%
viability, T/C [31]: 28.3%
viability, T/C [32]: 1.59%
viability, T/C [17]: 81.1%
viability, T/C [18]: 81.1%
viability, T/C [19]: 61.6%
viability, T/C [20]: 60.3%
viability, T/C [33]: 19.1%
viability, T/C [34]: 1.26%
viability, T/C [21]: 90.9%
viability, T/C [22]: 84.6%
viability, T/C [23]: 67.7%
viability, T/C [24]: 52.3%
viability, T/C [35]: 9.35%
viability, T/C [36]: 1.42%
